According to patent publication US11623919B2, “Heterocyclic P2X7 antagonists” (AXXAM S.P.A., priority 2017, dated 2023):

Assays:
Assay in all cases: Screen Quest Fluo-8 No Wash Calcium Assay (Bz-ATP evoked Ca2+ influx, FLIPR)
Assay type in all cases: cell-based
P2X7 receptor [1] = target: T1, P2X7 receptor (Mus musculus, UniProt Q9Z1M0); settings: mP2X7; HEK-293 cells stably transfected with P2X7 receptor, Bz-ATP at EC80, Fluo-8 NW; potency ranges A-D
T1 construct: mP2X7 (IC50; nM); other: mP2X7; HEK-293 cells stably transfected with P2X7 receptor, Bz-ATP at EC80, Fluo-8 NW; potency
T1 sequence (Q9Z1M0 1-595): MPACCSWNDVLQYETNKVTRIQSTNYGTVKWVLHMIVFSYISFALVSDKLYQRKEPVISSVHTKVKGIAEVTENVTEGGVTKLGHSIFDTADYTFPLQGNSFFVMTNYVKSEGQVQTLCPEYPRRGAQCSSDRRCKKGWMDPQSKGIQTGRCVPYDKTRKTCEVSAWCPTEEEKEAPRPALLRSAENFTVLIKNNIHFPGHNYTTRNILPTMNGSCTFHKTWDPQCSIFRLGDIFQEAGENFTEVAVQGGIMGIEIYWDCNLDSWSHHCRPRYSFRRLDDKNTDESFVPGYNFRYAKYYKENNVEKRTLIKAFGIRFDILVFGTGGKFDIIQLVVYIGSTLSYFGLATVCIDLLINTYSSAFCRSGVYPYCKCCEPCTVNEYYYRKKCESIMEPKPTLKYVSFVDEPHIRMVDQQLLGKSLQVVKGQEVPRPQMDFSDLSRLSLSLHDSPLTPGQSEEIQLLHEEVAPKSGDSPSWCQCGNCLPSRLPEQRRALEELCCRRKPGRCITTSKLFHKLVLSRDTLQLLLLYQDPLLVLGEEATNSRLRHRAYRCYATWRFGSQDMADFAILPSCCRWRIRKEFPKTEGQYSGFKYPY
Experimental: (§1) Extracellular binding of Bz-ATP to P2X7 receptor opens the channel and allows Ca2+ influx into the cells. […] Once inside the cell, the lipophilic blocking groups of Fluo-8 are cleaved by non-specific cell esterases, resulting in a negatively-charged fluorescent dye that stays inside cells. Its fluorescence increases upon binding to calcium.
(§2) HEK-293 cells stably transfected with P2X7 receptor were seeded overnight in growth medium at 10,000 to 20,000 cell/well in 384-well plate. 24 hours later, the medium was removed and the cells were pre-loaded at RT for 1 hour with 20 μL/w of Fluo-8 NW. Then 10 μL/w of tests compounds and reference antagonist A438079 at 3×-concentration were injected with the […] and the kinetic response over a period of five minutes was monitored. A second injection of 15 μL/w of 3× reference activator (Bz-ATP at EC80) was performed with the […] and the signal of the emitted fluorescence was recorded for additional three minutes. All the experiment was carried out in a Low Divalent Cation Assay Buffer (0.3 mM Ca^2+ and 0 mM Mg^2+). The effect of the test compounds was measured as percent inhibition vs the reference antagonist and IC50 values were calculated accordingly.

P2X7 receptor [2] = target: T2, P2X7 receptor (Rattus norvegicus, UniProt Q64663); settings: rP2X7; HEK-293 cells stably transfected with P2X7 receptor, Bz-ATP at EC80, Fluo-8 NW; potency ranges A-D
T2 construct: rP2X7 (IC50; nM); other: rP2X7; HEK-293 cells stably transfected with P2X7 receptor, Bz-ATP at EC80, Fluo-8 NW; potency
T2 sequence (Q64663 1-595): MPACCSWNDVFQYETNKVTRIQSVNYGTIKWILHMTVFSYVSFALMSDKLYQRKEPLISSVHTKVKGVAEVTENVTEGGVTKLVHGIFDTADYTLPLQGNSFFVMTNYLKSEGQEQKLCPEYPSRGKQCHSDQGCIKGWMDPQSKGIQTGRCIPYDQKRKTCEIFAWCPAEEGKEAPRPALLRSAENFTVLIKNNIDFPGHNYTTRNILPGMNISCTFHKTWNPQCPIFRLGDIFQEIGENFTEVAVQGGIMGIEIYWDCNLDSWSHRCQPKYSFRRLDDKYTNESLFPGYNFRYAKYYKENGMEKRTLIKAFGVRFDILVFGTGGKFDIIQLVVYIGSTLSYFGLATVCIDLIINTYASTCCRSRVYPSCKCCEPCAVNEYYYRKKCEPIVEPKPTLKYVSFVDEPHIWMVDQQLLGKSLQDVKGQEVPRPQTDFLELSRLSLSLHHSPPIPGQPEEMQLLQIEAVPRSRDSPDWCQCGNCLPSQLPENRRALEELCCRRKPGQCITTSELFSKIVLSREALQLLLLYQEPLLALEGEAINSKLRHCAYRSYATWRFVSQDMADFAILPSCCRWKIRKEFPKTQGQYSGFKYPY
Experimental: as §1, §2

P2X7 receptor [3] = target: T3, P2X7 receptor (Homo sapiens, UniProt Q99572); design: hP2X7 (IC50; nM); other: hP2X7; HEK-293 cells stably transfected with P2X7 receptor, Bz-ATP at EC80, Fluo-8 NW; potency; settings: hP2X7; HEK-293 cells stably transfected with P2X7 receptor, Bz-ATP at EC80, Fluo-8 NW; potency ranges A-D
T3 sequence (Q99572 1-595): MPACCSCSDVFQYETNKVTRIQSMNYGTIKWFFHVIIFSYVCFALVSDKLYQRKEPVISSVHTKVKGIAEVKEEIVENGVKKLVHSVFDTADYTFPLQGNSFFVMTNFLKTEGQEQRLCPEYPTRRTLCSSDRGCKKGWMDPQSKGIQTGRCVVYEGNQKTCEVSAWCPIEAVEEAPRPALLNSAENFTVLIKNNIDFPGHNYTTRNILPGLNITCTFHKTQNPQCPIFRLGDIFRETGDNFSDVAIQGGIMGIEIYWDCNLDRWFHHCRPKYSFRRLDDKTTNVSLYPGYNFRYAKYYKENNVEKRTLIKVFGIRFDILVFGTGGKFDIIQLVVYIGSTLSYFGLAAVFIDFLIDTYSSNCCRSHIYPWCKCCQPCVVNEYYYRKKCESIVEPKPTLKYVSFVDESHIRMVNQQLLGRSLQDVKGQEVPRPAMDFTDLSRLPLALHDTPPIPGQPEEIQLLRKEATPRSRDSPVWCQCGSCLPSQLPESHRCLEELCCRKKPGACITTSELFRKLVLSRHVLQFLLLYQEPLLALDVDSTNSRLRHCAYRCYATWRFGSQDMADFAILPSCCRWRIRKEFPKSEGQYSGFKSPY
Experimental: as §1, §2

| Structure (SMILES) | IC50 (P2X7 receptor [1]) | IC50 (P2X7 receptor [2]) | IC50 (P2X7 receptor [3]) |
| --- | --- | --- | --- |
| O=c1onc(Cc2c(F)cccc2Cl)n1Cc1cccc2ncccc12 [Example 30, 3-[(2-chloro-6-fluorophenyl)methyl]-4-(quinolin-5-ylmethyl)-4,5-dihydro-1,2,4-oxadiazol-5-one] | 1000 to 10000 nM | 1000 to 10000 nM | 1000 to 10000 nM |
| CC1CC(F)(F)CCN1Cc1noc(=O)n1Cc1ccc(F)cc1 (stereo not drawn) [Example 227, 3-[(4,4-difluoro-2-methylpiperidin-1-yl)methyl]-4-[(4-fluorophenyl)methyl]-4,5-dihydro-1,2,4-oxadiazol-5-one] | 1000 to 10000 nM | 200 to 1000 nM | 1000 to 10000 nM |
| O=c1onc(Cc2ccccc2)n1Cc1c(F)cccc1Cl [Example 6, 3-benzyl-4-[(2-chloro-6-fluorophenyl)methyl]-4,5-dihydro-1,2,4-oxadiazol-5-one] | 1000 to 10000 nM | 1000 to 10000 nM | 1000 to 10000 nM |
| O=c1onc(CC2CCC(F)(F)CC2)n1Cc1ncco1 [Example 194, 3-[(4,4-difluorocyclohexyl)methyl]-4-[(1,3-oxazol-2-yl)methyl]-1,2,4-oxadiazol-5(4H)-one] | > 10000 nM | 1000 to 10000 nM | 1000 to 10000 nM |
| Cc1cc(Cn2c(CC3CCC(F)(F)CC3)noc2=O)n(C)n1 [Example 195, 3-[(4,4-difluorocyclohexyl)methyl]-4-[(1,3-dimethyl-1H-pyrazol-5-yl)methyl]-1,2,4-oxadiazol-5(4H)-one] | 200 to 1000 nM | 200 to 1000 nM | 200 to 1000 nM |
| O=c1onc(Cc2ccccc2)n1Cc1ccc(F)cc1 [Example 108, 3-benzyl-4-[(4-fluorophenyl)methyl]-4,5-dihydro-1,2,4-oxadiazol-5-one] | 1000 to 10000 nM | 1000 to 10000 nM | 1000 to 10000 nM |
| O=c1onc(CN2CCOc3ccccc32)n1Cc1c(F)cccc1Cl [Example 229, 4-[(2-chloro-6-fluorophenyl)methyl]-3-(3,4-dihydro-2H-1,4-benzoxazin-4-ylmethyl)-4,5-dihydro-1,2,4-oxadiazol-5-one] | 1000 to 10000 nM | 1000 to 10000 nM | 1000 to 10000 nM |

Now from value to compound:

| IC50 (P2X7 receptor [1]) | IC50 (P2X7 receptor [2]) | IC50 (P2X7 receptor [3]) | Structure (SMILES) |
| --- | --- | --- | --- |
| > 10000 nM | > 10000 nM | 1000 to 10000 nM | O=c1onc(Cc2c(F)cccc2Cl)n1CCCN1CCC(F)(F)CC1 [Example 182, 3-[(2-chloro-6-fluorophenyl)methyl]-4-[3-(4,4-difluoropiperidin-1-yl)propyl]-4,5-dihydro-1,2,4-oxadiazol-5-one] |
| 200 to 1000 nM | 200 to 1000 nM | 200 to 1000 nM | O=c1onc(CCc2c(F)cccc2Cl)n1CC1CCC(F)(F)CC1 [Example 147, 3-[2-(2-chloro-6-fluorophenyl)ethyl]-4-[(4,4-difluorocyclohexyl)methyl]-1,2,4-oxadiazol-5(4H)-one] |
| 200 to 1000 nM | < 200 nM | < 200 nM | O=c1onc(Cc2c(F)cccc2Cl)n1CC1CCC(F)(F)C1 (single isomer, unassigned) [Example 148, 3-(2-chloro-6-fluorobenzyl)-4-[(3,3-difluorocyclopentyl)methyl]-1,2,4-oxadiazol-5(4H)-one] |
| 1000 to 10000 nM | 1000 to 10000 nM | 1000 to 10000 nM | COc1cccc(Cn2c(Cc3c(F)cccc3Cl)noc2=O)c1 [Example 57, 3-[(2-chloro-6-fluorophenyl)methyl]-4-[(3-methoxyphenyl)methyl]-4,5-dihydro-1,2,4-oxadiazol-5-one] |
| 200 to 1000 nM | < 200 nM | 200 to 1000 nM | O=c1onc(CC2CCC(F)(F)CC2)n1Cc1ccccc1F [Example 165, 3-[(4,4-difluorocyclohexyl)methyl]-4-[(2-fluorophenyl)methyl]-4,5-dihydro-1,2,4-oxadiazol-5-one] |
| > 10000 nM | > 10000 nM | > 10000 nM | Cc1ncccc1Cc1noc(=O)n1Cc1c(F)cccc1Cl [Example 217, 4-[(2-chloro-6-fluorophenyl)methyl]-3-[(2-methylpyridin-3-yl)methyl]-4,5-dihydro-1,2,4-oxadiazol-5-one] |
